# Reference: ChEMBL document CHEMBL5126556, “Recent advances in natural anti-obesity compounds and derivatives based on in vivo evidence: A mini-review” (Eur J Med Chem, 2022)
# Tests used:
# Type in all cases: functional
# [1] = test system: Mus musculus; test: Anti-obesity activity in male C57BL/6 mouse model of high-fat diet induced obesity assessed as body weight change at 30 mg/kg, po administered once a day for 8 weeks relative to control
# [2] = test system: Mus musculus; test: Anti-obesity activity in male C57BL/6 mouse model of high-fat diet induced obesity assessed as body weight change at 50 mg/kg, po administered once a day for 8 weeks relative to control
# [3] = test system: Mus musculus; test: Anti-obesity activity in male C57BL/6 mouse model of high-fat diet induced obesity assessed as body weight change at 50 mg/kg, po administered once a day for 6 weeks relative to control
# [4] = test system: Mus musculus; test: Anti-obesity activity in male C57BL/6 mouse model of high-fat diet induced obesity assessed as body weight change at 150 mg/kg, po administered once a day for 4 weeks relative to control
# [5] = test system: Mus musculus; test: Anti-obesity activity in high-fat diet induced C57BL/6J obese mouse model assessed as body weight change at 150 mg/kg, po administered once daily for 4 weeks relative to control
# [6] = test system: Mus musculus; test: Anti-obesity activity in male C57BL/6 mouse model of high-fat diet induced obesity assessed as body weight change at 20 mg/kg, po administered once a day for 8 weeks relative to control
# [7] = test system: Mus musculus; test: Anti-obesity activity in male C57BL/6 mouse model of high-fat diet induced obesity assessed as body weight change at 50 mg/kg, po administered once a day for 9 weeks relative to control
# [8] = test system: Mus musculus; test: Anti-obesity activity in male C57BL/6 mouse model of high-fat diet induced obesity assessed as body weight change at 20 mg/kg, ip administered twice a week for 12 weeks relative to control
# [9] = test system: Mus musculus; test: Anti-obesity activity in male C57BL/6 mouse model of high-fat diet induced obesity assessed as body weight change at 1 mg/kg, po administered once a week for 7 weeks relative to control
# [10] = test system: Mus musculus; test: Anti-obesity activity in female C57BL/6 mouse model of high-fat diet induced obesity assessed as body weight change at 0.005 % (w/v) administered orally for 16 weeks relative to control; conditions: route po
# [11] = test system: Mus musculus; test: Anti-obesity activity in Swiss male mouse model of high-fat diet induced obesity assessed as body weight change at 10 mg/kg, po administered for 15 weeks relative to control
# [12] = test system: Mus musculus; test: Anti-obesity activity in male C57BL/6 mouse model of high-fat diet induced obesity assessed as body weight change at 5 mg/kg, po administered thrice a week for 8 weeks relative to control
# [13] = test system: Mus musculus; test: Anti-obesity activity in male C57BL/6 mouse model of high-fat diet induced obesity assessed as body weight change at 0.002 mg/kg, ip administered once a day for 8 weeks relative to control
# [14] = test system: Mus musculus; test: Anti-obesity activity in male C57BL/6 mouse model of high-fat diet induced obesity assessed as body weight change at 1.25 mg/kg, ip administered once a day for 21 days relative to control; conditions: time 21 day
structure (smiles),measurement,setting,value
CC1(C)[C@@H](O)CC[C@]2(C)[C@H]3C(=O)C=C4[C@@H]5C[C@@](C)(C(=O)O)CC[C@]5(C)CC[C@@]4(C)[C@]3(C)CC[C@@H]12 [ENOXOLONE],Activity,[1],30.2%
COc1ccc(-c2coc3cc(O)ccc3c2=O)cc1 [FORMONONETIN],Activity,[2],18.8%
C[C@H](CC(=O)C[C@@H](C)[C@H]1C[C@H](O)[C@@]2(C)C3=C(C(=O)C[C@]12C)[C@@]1(C)CCC(=O)C(C)(C)[C@@H]1C[C@@H]3O)C(=O)O [GANODERIC ACID A],Activity,[3],17.4%
CC1(C)C=Cc2c(ccc3c2OC[C@@H](c2ccc(O)cc2O)C3)O1 [GLABRIDIN],Activity,[4],-16.7%
same,Activity,[5],-13.2%
C=C1C(=O)O[C@@H]2C[C@@]3(C)CCCC(=C)[C@@H]3C[C@H]12 [ISOALANTOLACTONE],Activity,[6],44.1%
CC1(C)C=Cc2cc(-c3coc4cc(O)ccc4c3=O)ccc2O1 [ISOWIGHTEONE],Activity,[7],8.3%
CC1(C)CC[C@]2(C(=O)O)CC[C@]3(C)C(=CC[C@@H]4[C@@]5(C)C[C@@H](O)[C@H](O)C(C)(C)[C@@H]5CC[C@]43C)[C@@H]2C1 [MASLINIC ACID],Activity,[8],18.2%
O=C1N[C@@H]2C(=C[C@H](O)[C@@H](O)[C@H]2O)c2cc3c(c(O)c21)OCO3 [NARCICLASINE],Activity,[9],23.6%
CC1(C)CC[C@]2(C(=O)O)CC[C@]3(C)C(=CC[C@@H]4[C@@]5(C)CC[C@H](O)C(C)(C)[C@@H]5CC[C@]43C)[C@@H]2C1 [OLEANOLIC_ACID],Activity,[10],45%
same,Activity,[11],71.9%
COc1cc(O)c(C(=O)[C@@H]2[C@H](CC=C(C)C)C(C)=CC[C@H]2c2ccccc2)c(O)c1 [PANDURATIN A],Activity,[2],15%
Cc1coc2c1C(=O)C(=O)c1c-2ccc2c(C)cccc12 [TANSHINONE I],Activity,[12],30.6%
CC1=C(CO)C(=O)O[C@@H]([C@@H](C)[C@H]2CC[C@H]3[C@@H]4C[C@H]5O[C@]56[C@@H](O)C=CC(=O)[C@]6(C)[C@H]4CC[C@]23C)C1 [WITHAFERIN A],Activity,[13],30.5%
same,Activity,[14],0%
